Results reported in PMC8342458, “GluN2A and GluN2B NMDA receptors use distinct allosteric routes” (Nature Communications, 2021).
Where two headings read alike, the source gives them in different places.

Legend:
[1] = molecular target: T1, GluN1-K178AzF/GluN2A receptors (Rattus norvegicus, UniProt P35439+Q00959); assay: TEVC recordings in Xenopus oocytes, modulator sensitivity before and after UV photocrosslinking; type: cell-based; conditions: read-out: Zn2+ IC50
T1 construct: For full-length multimeric membrane-embedded receptors studied in cellulo, as done in the present work; expressed in transfected cells; host or cells: Xenopus laevis oocytes, co-injected with amber suppressor tRNA (Yam) and AzF-RS
Description: (§1) The pcDNA3-based expression plasmids for rat GluN1-1a (named GluN1 herein), rat GluN2A, and mouse GluN2B (also known as ε2) subunits, Pfu-based site-directed mutagenesis strategy, and sequencing procedure have been described previously[68],[69]. Incorporation of the unnatural amino acids (UAAs) AzF and BzF into NMDARs was performed using the genetic code expansion methodology as previously described[52],[53],[83]. The plasmid pSVB.Yam carrying the gene encoding the amber suppressor tRNA derived from B. stearothermophilus Tyr-tRNACUA, while the aminoacyl-tRNA synthetases (aaRS) construction for AzF and BzF derived from E. coli TyrRS[84],[85].
(§2) Recombinant NMDARs were expressed in Xenopus laevis oocytes after nuclear injection of 36 nl of a mixture of cDNAs (at 10–30 ng/μl) encoding various GluN1 and GluN2 subunits (ratio 1:1). Oocytes were prepared, injected, incubated, and voltage-clamped as described previously. For UAA incorporation, oocytes were co-injected with 36 nl of a cDNA mixture encoding for of GluN1, GluN2, Yam, and aaRS as follows, unless otherwise indicated in the text: GluN1-K178amber (120 ng/μl), GluN2A (80 ng/µl) or GluN2B (120 ng/μl), Yam (10 ng/μl), AzF-RS (5 ng/μl). After injection, oocytes were incubated at 19 °C in a Barth solution containing (in mM) 88 NaCl, 1 KCl, 0.33 Ca(NO3)2, 0.41 CaCl2, 0.82 MgSO4, 2.4 NaHCO3, 10 HEPES (pH adjusted to 7.6 with NaOH) supplemented with gentamicin ([…]) and the NMDAR glutamate binding site competitive antagonist D-APV (50 μM). AzF and BzF were added to the incubation medium at final concentrations of 1 mM and 2 mM, respectively.
(§3) For all experiments, except those on pH and spermine sensitivity, the standard external solution contained (in mM): 100 NaCl, 0.3 BaCl2, and 5 HEPES (pH adjusted to 7.3 with KOH). […] For the pH and spermine sensitivity experiments, an external solution enriched in HEPES was used to insure proper pH buffering. Unless otherwise mentioned, NMDAR-mediated currents were induced by simultaneously applications of saturating concentrations of glutamate and glycine (100 μM each). Glutamate and glycine dose-response curves (DRC) were performed in the presence of 100 µM glycine and 100 µM glutamate, respectively. Recordings were performed at a holding potential of −60 mV and at room temperature. Data were collected and analyzed using Clampex 10.5 and Clampfit 10.5 (Molecular Devices), respectively, and fitted using KaleidaGraph 4.0 (Synergy software).
(§4) EC50 and nH were fitted as free parameters. […] For proton DRC, corrections for small shifts in the reference potential of bath electrodes and analysis of the data were performed as previously described. Spermine experiments were performed and analyzed as previously described. In brief, spermine sensitivity was assessed at pH 6.5 and at a holding potential of −30 mV to maximize the spermine induced potentiation. […] EC50, a and nH were set as free parameters. MK-801 is an NMDAR open channel blocker with slow reversibility and, consequently, the rate at which MK-801 inhibits NMDAR responses depends on the level of channel activity, that is, channel open probability (Po). Based on this principle, MK-801 is classically used to estimate the level of NMDAR channel activity in macroscopic whole-cell recordings[36],[47],[56],[86],[87]. Note, however, that MK- 801 inhibition kinetics can index relative, not absolute, Po. MK-801 solutions (10 nM for GluN2A-containing receptors and 50 nM for GluN2B-containing receptors) were prepared by dilution of a stock solution (50 mM) into the agonist containing solutions. MK-801 time constants of inhibition (τon) were obtained by fitting currents with a single-exponential component to a time window corresponding to 10–90% of maximum inhibition. On-rate (kon) constants were then calculated assuming a pseudo first-order reaction scheme: kon = 1 / ([MK-801]*τon).

[2] = molecular target: T2, GluN1-K178AzF/GluN2A receptors (Rattus norvegicus, UniProt P35439+Q00959, K178F); assay: as above; type: cell-based; conditions: for Izn/Io 1 nM: 1 nM zinc; for Izn/Io 10 nM: 10 nM zinc; for Izn/Io 1000 nM: 1000 nM zinc
T2 construct: For full-length multimeric membrane-embedded receptors studied in cellulo, as done in the present work; expressed in transfected cells; host or cells: Xenopus laevis oocytes, co-injected with amber suppressor tRNA (Yam) and AzF-RS
T2 sequence (Q00959 23-1464, other chains not shown): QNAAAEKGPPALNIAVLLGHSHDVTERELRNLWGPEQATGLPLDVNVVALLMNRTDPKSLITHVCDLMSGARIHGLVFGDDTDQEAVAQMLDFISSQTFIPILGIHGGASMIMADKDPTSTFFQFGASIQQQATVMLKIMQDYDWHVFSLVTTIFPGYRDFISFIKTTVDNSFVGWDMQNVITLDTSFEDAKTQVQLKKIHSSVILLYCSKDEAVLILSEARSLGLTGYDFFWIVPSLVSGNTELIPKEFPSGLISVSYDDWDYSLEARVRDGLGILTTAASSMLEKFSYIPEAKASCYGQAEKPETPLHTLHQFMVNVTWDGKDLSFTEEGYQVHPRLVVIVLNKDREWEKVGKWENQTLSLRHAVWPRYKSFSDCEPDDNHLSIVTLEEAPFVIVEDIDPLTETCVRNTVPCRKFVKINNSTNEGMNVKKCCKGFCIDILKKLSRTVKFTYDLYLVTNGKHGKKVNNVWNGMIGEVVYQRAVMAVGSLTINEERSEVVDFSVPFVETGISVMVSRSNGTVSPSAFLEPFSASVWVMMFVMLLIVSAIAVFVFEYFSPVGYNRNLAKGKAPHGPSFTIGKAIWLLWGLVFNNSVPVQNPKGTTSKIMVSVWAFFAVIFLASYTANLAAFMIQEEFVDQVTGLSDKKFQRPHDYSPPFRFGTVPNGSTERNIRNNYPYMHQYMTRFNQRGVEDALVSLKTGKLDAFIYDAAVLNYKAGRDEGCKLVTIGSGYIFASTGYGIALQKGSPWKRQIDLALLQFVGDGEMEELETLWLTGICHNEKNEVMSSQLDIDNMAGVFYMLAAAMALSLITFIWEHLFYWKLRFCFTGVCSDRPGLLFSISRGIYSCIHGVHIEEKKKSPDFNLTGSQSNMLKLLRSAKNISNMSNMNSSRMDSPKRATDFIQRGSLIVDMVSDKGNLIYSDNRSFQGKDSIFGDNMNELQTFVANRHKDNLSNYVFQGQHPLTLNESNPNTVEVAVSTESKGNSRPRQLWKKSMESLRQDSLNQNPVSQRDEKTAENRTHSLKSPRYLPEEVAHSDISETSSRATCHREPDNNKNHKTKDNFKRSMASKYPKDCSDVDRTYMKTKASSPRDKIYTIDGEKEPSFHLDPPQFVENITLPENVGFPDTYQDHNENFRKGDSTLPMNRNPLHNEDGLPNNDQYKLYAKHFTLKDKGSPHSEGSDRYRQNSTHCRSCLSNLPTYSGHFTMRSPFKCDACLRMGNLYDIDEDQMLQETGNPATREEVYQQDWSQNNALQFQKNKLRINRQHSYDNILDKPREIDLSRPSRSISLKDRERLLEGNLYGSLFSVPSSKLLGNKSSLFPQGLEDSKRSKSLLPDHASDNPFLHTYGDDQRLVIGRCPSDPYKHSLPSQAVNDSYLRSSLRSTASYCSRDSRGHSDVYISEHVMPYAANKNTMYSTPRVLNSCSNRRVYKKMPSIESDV
Description: as §1, §2, §3, §4

[3] = molecular target: T3, GluN1-K178AzF/GluN2B receptors (UniProt P35439+Q01097, K178F); assay: as above; type: cell-based, rat (GluN1), mouse (GluN2B); conditions: for Izn/Io 0.1 μM: 0.1 μM zinc; for Izn/Io 1 μM: 1 μM zinc; for Izn/Io 10 μM: 10 μM zinc
T3 construct: For full-length multimeric membrane-embedded receptors studied in cellulo, as done in the present work; expressed in transfected cells; host or cells: Xenopus laevis oocytes, co-injected with amber suppressor tRNA (Yam) and AzF-RS
T3 sequence (Q01097 27-1482, other chains not shown): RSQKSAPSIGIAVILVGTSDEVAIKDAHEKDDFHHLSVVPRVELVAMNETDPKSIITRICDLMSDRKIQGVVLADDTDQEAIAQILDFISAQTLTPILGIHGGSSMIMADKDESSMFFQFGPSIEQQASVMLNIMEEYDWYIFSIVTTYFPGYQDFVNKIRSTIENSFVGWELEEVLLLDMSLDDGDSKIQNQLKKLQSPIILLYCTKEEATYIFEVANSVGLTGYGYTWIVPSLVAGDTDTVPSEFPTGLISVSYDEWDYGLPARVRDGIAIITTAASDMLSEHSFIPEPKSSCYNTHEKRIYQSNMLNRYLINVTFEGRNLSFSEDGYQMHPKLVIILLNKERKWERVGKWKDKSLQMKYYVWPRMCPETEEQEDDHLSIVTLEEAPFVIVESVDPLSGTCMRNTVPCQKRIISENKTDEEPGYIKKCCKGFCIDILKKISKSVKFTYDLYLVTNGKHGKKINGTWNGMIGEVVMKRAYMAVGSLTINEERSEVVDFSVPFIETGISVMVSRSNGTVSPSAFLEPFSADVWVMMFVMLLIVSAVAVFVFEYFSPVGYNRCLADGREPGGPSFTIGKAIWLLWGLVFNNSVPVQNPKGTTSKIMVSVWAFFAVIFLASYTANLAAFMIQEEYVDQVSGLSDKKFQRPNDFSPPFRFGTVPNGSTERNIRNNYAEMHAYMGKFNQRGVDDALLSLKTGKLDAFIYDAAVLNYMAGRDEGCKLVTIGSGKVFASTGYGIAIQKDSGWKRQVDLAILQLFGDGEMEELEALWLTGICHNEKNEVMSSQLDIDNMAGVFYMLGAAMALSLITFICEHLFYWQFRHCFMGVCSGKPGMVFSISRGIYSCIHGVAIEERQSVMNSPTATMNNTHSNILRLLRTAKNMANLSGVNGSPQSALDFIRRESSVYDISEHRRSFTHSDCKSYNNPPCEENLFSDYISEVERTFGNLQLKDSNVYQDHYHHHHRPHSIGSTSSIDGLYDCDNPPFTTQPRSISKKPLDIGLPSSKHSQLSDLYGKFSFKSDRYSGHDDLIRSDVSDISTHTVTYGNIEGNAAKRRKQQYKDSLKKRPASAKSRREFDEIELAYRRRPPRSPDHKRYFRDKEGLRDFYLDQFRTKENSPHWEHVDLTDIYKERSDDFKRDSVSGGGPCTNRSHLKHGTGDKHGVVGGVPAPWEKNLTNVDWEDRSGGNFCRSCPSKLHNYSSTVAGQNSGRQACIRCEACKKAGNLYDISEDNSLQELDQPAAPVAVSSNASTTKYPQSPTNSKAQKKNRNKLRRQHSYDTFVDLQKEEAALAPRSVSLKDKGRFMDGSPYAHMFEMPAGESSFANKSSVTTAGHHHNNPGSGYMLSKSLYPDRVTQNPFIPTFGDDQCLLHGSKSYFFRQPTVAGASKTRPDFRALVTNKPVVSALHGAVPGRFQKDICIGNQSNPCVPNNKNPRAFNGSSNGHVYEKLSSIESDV
Description: as §1, §2, §3, §4

[4] = molecular target: T4, GluN1-K178AzF/GluN2B receptors (UniProt P35439+Q01097); assay: as above; type: cell-based, rat (GluN1), mouse (GluN2B); conditions: read-out: Zn2+ IC50
T4 construct: For full-length multimeric membrane-embedded receptors studied in cellulo, as done in the present work; expressed in transfected cells; host or cells: Xenopus laevis oocytes, co-injected with amber suppressor tRNA (Yam) and AzF-RS
Description: as §1, §2, §3, §4

[5] = molecular target: T5, GluN1/GluN2A-V217C receptors (Rattus norvegicus, UniProt P35439+Q00959, V217C); assay: TEVC recordings in Xenopus oocytes, zinc inhibition dose-response; type: cell-based
T5 construct: For full-length multimeric membrane-embedded receptors studied in cellulo, as done in the present work; expressed in transfected cells; host or cells: Xenopus laevis oocytes
Description: as §1, §2, §3, §4

[6] = molecular target: T6, GluN1-N521C-L777C/GluN2A-E516C-L780C (CC/CC) receptors (Rattus norvegicus, UniProt P35439+Q00959, E516C/L777C/L780C/N521C); assay: TEVC recordings in Xenopus oocytes, zinc sensitivity; type: cell-based
T6 construct: For full-length multimeric membrane-embedded receptors studied in cellulo, as done in the present work; expressed in transfected cells; host or cells: Xenopus laevis oocytes
T6 sequence (Q00959 23-1464 E516C/L780C, other chains not shown): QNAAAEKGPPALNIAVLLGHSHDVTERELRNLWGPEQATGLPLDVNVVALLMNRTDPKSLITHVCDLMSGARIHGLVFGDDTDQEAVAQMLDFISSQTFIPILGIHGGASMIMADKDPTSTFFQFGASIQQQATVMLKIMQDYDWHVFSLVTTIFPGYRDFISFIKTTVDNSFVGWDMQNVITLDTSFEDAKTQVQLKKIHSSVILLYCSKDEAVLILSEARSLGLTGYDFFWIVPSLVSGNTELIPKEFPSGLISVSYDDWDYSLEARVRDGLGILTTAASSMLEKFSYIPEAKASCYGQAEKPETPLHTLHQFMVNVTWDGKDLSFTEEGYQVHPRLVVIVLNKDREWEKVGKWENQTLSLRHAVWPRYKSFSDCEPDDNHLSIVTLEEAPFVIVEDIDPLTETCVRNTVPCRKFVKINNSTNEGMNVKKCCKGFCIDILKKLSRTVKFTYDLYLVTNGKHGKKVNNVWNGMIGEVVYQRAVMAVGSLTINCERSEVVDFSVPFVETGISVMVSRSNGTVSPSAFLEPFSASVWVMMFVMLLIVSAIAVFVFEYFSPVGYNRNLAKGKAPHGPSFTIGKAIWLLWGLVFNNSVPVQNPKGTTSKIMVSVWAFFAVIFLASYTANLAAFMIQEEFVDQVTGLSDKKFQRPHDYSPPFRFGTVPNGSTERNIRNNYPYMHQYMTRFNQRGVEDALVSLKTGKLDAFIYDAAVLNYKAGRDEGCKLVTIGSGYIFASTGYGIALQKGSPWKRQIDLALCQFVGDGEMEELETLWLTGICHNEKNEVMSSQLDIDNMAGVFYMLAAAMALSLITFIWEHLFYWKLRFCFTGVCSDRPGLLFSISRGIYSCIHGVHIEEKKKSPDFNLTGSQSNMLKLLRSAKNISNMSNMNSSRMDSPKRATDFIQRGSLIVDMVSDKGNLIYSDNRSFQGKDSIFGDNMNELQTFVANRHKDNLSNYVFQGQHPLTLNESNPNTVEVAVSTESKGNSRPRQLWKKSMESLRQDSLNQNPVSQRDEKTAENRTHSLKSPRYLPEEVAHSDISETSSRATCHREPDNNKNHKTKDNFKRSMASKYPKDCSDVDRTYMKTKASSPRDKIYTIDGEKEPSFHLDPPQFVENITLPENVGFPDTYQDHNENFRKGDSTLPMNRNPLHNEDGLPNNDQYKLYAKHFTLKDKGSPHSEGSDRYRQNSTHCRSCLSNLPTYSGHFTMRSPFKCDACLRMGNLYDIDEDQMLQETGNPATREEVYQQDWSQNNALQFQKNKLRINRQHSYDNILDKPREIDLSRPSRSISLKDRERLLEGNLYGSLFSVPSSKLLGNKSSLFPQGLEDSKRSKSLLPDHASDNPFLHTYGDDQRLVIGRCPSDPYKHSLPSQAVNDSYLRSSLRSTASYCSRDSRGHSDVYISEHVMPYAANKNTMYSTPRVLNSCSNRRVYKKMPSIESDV
Description: as §1, §2, §3, §4

[Zn+2] [zinc]
IC50 ([1]; after UV): 7.69 ± 0.17 nM | IC50 ([1]; before UV): 7.43 ± 1.1 nM | Izn/Io 1 nM ([2]; +UV): 0.94 ± 0.01 | Izn/Io 1 nM ([2]; -UV): 0.91 ± 0.02 | Izn/Io 10 nM ([2]; +UV): 0.70 ± 0.02 | Izn/Io 10 nM ([2]; -UV): 0.60 ± 0.01 | Izn/Io 1000 nM ([2]; +UV): 0.48 ± 0.04 | Izn/Io 1000 nM ([2]; -UV): 0.30 ± 0.03 | Zn2+ Hill slope (nH) ([2]; after UV): 1.05 ± 0.07 | Zn2+ maximal inhibition ([2]; after UV): 0.52 ± 0.04 | Zn2+ Hill slope (nH) ([2]; before UV): 0.99 ± 0.09 | Zn2+ maximal inhibition ([2]; before UV): 0.70 ± 0.03 | Izn/Io 0.1 μM ([3]; +UV): 0.97 ± 0.02 | Izn/Io 0.1 μM ([3]; -UV): 0.73 ± 0.09 | Izn/Io 1 μM ([3]; +UV): 0.86 ± 0.03 | Izn/Io 1 μM ([3]; -UV): 0.33 ± 0.05 | Izn/Io 10 μM ([3]; +UV): 0.45 ± 0.08 | Izn/Io 10 μM ([3]; -UV): 0.04 ± 0.01 | Zn2+ Hill slope (nH) ([3]; after UV): 0.91 ± 0.02 | Zn2+ Hill slope (nH) ([3]; before UV): 1.02 ± 0.02 | increase in zinc IC50 following UV treatment ([3]; post-UV vs pre-UV): ~ 15 fold | IC50 ([4]; after UV): 7960 ± 160 nM | IC50 ([4]; before UV): 540 ± 10 nM | Zn2+ Hill slope (nH) [5]: 0.44 ± 0.08 | maximal level of zinc inhibition [5]: 40% | Izn/Io 1 nM ([5]; 1 nM zinc): 0.86 ± 0.03 | Izn/Io 10 nM ([5]; 10 nM zinc): 0.78 ± 0.03 | Izn/Io 50 nM ([5]; 50 nM zinc): 0.70 ± 0.03 | Izn/Io 500 nM ([5]; 500 nM zinc): 0.65 ± 0.03 | Izn/Io 1000 nM ([5]; 1000 nM zinc): 0.64 ± 0.04 | IC50 ([5]; read-out: Zn2+ IC50): 4.64 ± 1.78 nM | Zn2+ Hill slope (nH) [6]: 0.40 ± 0.11 | Zn2+ maximal inhibition [6]: 0.37 ± 0.04 | Izn/Io 1 nM ([6]; 1 nM zinc): 0.86 ± 0.01 | Izn/Io 5 nM ([6]; 5 nM zinc): 0.81 ± 0.02 | Izn/Io 50 nM ([6]; 50 nM zinc): 0.72 ± 0.03 | Izn/Io 500 nM ([6]; 500 nM zinc): 0.66 ± 0.04 | Izn/Io 1000 nM ([6]; 1000 nM zinc): 0.68 ± 0.01 | IC50 ([6]; read-out: Zn2+ IC50): 3.44 ± 2.03 nM
